Experimental data as given in patent publication US20050153999A1, “Pharmaceutical compositions” (SCHERING CORPORATION, priority 2003, published 2005).
Structures can show the parent of a compound that is named as a salt. Where two headings read alike, the source gives them in different places.

Experiment: Equilibrium solubility in aqueous solutions containing different concentrations of Captisol
Assay type: physicochemical
Conditions: aqueous solution containing Captisol, 20 °C, thermodynamic from solid, free form equivalent
Description: Captisol® improves the solubility of the compound of Formula I in free base form, HCl salt and tosylate salt. Solubility of the above compounds was determined by equilibrating the powder with aqueous solutions containing different concentration of Captisol® at ambient temperature (20° C.).
The solutions were prepared in accordance with methods known to one of skill in the art.

C[C@@H](OC[C@@]1(c2ccccc2)CC[C@]2(CCC(=O)N2)CN1)c1cc(C(F)(F)F)cc(C(F)(F)F)c1 [Compound I HCl salt]
solubility (pH 5, aqueous buffer, Captisol 0 % w/v, pH 5 (NaOH adjusted), ambient temperature (20° C.), read-out: Solubility of Compound I HCl salt at pH 5 (pH adjusted by NaOH)): 50 µg/mL | solubility (pH 5, aqueous with cosolvent or surfactant or cyclodextrin, Captisol 2 % w/v, pH 5 (NaOH adjusted), ambient temperature (20° C.), read-out: Solubility of Compound I HCl salt at pH 5 (pH adjusted by NaOH)): 3500 µg/mL | solubility (pH 5, aqueous with cosolvent or surfactant or cyclodextrin, Captisol 5 % w/v, pH 5 (NaOH adjusted), ambient temperature (20° C.), read-out: Solubility of Compound I HCl salt at pH 5 (pH adjusted by NaOH)): 4700 µg/mL | solubility (pH 5, aqueous with cosolvent or surfactant or cyclodextrin, Captisol 10 % w/v, pH 5 (NaOH adjusted), ambient temperature (20° C.), read-out: Solubility of Compound I HCl salt at pH 5 (pH adjusted by NaOH)): 10000 µg/mL

C[C@@H](OC[C@@]1(c2ccccc2)CC[C@]2(CCC(=O)N2)CN1)c1cc(C(F)(F)F)cc(C(F)(F)F)c1 [Compound I Tosylate salt]
solubility (pH 5, aqueous buffer, Captisol 0 % w/v, pH 5 (NaOH adjusted), 20° C., read-out: Solubility of Compound I Tosylate salt at pH 5 (pH adjusted by NaOH)): 150 µg/mL | solubility (pH 5, aqueous with cosolvent or surfactant or cyclodextrin, Captisol 10 % w/v, pH 5 (NaOH adjusted), 20° C., read-out: Solubility of Compound I Tosylate salt at pH 5 (pH adjusted by NaOH)): 940 µg/mL | solubility (pH 5, aqueous with cosolvent or surfactant or cyclodextrin, Captisol 20 % w/v, pH 5 (NaOH adjusted), 20° C., read-out: Solubility of Compound I Tosylate salt at pH 5 (pH adjusted by NaOH)): 1800 µg/mL | solubility (pH 5, aqueous with cosolvent or surfactant or cyclodextrin, Captisol 40 % w/v, pH 5 (NaOH adjusted), 20° C., read-out: Solubility of Compound I Tosylate salt at pH 5 (pH adjusted by NaOH)): 4100 µg/mL

C[C@@H](OC[C@@]1(c2ccccc2)CC[C@]2(CCC(=O)N2)CN1)c1cc(C(F)(F)F)cc(C(F)(F)F)c1 [Compound I free base]
solubility (pH 5.2, aqueous buffer, Captisol 0 % w/v, pH 5.2 citric acid buffered, 20° C., read-out: Solubility of Compound I free base at pH 5.2 (citric acid buffered)): 170 µg/mL | solubility (pH 5.2, aqueous with cosolvent or surfactant or cyclodextrin, Captisol 2 % w/v, pH 5.2 citric acid buffered, 20° C., read-out: Solubility of Compound I free base at pH 5.2 (citric acid buffered)): 2200 µg/mL | solubility (pH 5.2, aqueous with cosolvent or surfactant or cyclodextrin, Captisol 5 % w/v, pH 5.2 citric acid buffered, 20° C., read-out: Solubility of Compound I free base at pH 5.2 (citric acid buffered)): 4600 µg/mL | solubility (pH 5.2, aqueous with cosolvent or surfactant or cyclodextrin, Captisol 10 % w/v, pH 5.2 citric acid buffered, 20° C., read-out: Solubility of Compound I free base at pH 5.2 (citric acid buffered)): 7200 µg/mL | solubility (pH 5.2, aqueous with cosolvent or surfactant or cyclodextrin, Captisol 20 % w/v, pH 5.2 citric acid buffered, 20° C., read-out: Solubility of Compound I free base at pH 5.2 (citric acid buffered)): 12000 µg/mL | solubility (pH 7.2, aqueous buffer, Captisol 0 % w/v, pH 7.2 phosphate buffered, 20° C., read-out: Solubility of Compound I free base at pH 7.2 (phosphate buffered)): 2 µg/mL | solubility (pH 7.2, aqueous with cosolvent or surfactant or cyclodextrin, Captisol 2 % w/v, pH 7.2 phosphate buffered, 20° C., read-out: Solubility of Compound I free base at pH 7.2 (phosphate buffered)): 50 µg/mL | solubility (pH 7.2, aqueous with cosolvent or surfactant or cyclodextrin, Captisol 5 % w/v, pH 7.2 phosphate buffered, 20° C., read-out: Solubility of Compound I free base at pH 7.2 (phosphate buffered)): 150 µg/mL | solubility (pH 7.2, aqueous with cosolvent or surfactant or cyclodextrin, Captisol 10 % w/v, pH 7.2 phosphate buffered, 20° C., read-out: Solubility of Compound I free base at pH 7.2 (phosphate buffered)): 290 µg/mL | solubility (pH 7.2, aqueous with cosolvent or surfactant or cyclodextrin, Captisol 20 % w/v, pH 7.2 phosphate buffered, 20° C., read-out: Solubility of Compound I free base at pH 7.2 (phosphate buffered)): 610 µg/mL
